Assay results published in ChEMBL document CHEMBL4342507, “Targeting YAP Degradation by a Novel 1,2,4-Oxadiazole Derivative via Restoration of the Function of the Hippo Pathway” (ACS Med Chem Lett, 2020).
The source made the active and inactive calls. The rule behind the calls is not given here.

Legend:
[1] = Acute toxicity in athymic Nude-Foxn1nu BALB/c mouse xenografted with human MDA-MB-231 cells assessed as effect on blood urea nitrogen level at 200 mg/kg, po administered once daily via gavage for 14 days; type: organism-based; conditions: in vivo, 336 h
[2] = tested on: MDA-MB-231; assay: Cytotoxicity against human MDA-MB-231 cells ectopically overexpressed with wild type FLAG-tagged YAP assessed as reduction in cell viability at 0.2 to 1.2 uM measured after 72 hrs by MTT assay; type: functional, cell-based
[3] = tested on: Mus musculus; assay: Downregulation of YAP protein expression in tumor of athymic Nude-Foxn1nu BALB/c mouse xenografted with human MDA-MB-231 cells at 200 mg/kg, po administered once daily via gavage for 40 days by immunoblotting analysis; type: functional, organism-based
[4] = Acute toxicity in athymic Nude-Foxn1nu BALB/c mouse xenografted with human MDA-MB-231 cells assessed as effect on serum AST level at 200 mg/kg, po administered once daily via gavage for 14 days; type: organism-based; conditions: in vivo, 336 h
[5] = tested on: MDA-MB-231; assay: Cytotoxicity against human MDA-MB-231 cells assessed as reduction in cell viability measured after 72 hrs by MTT assay; type: functional, cell-based
[6] = tested on: SUM-159-PT; assay: Cytotoxicity against human SUM159 cells assessed as reduction in cell viability at 0.2 to 1.2 uM by MTT assay; type: functional, cell-based; conditions: TDE = time-dependent effect
[7] = target: T1, Serine/threonine-protein kinase LATS1 (Homo sapiens) (UniProt O95835); assay: Activation of LATS1 in human PC3 cells assessed as increase in phosphorylation at Thr1079 residue measured after 24 hrs by Western blot analysis; type: cell-based
T1 sequence (whole entry): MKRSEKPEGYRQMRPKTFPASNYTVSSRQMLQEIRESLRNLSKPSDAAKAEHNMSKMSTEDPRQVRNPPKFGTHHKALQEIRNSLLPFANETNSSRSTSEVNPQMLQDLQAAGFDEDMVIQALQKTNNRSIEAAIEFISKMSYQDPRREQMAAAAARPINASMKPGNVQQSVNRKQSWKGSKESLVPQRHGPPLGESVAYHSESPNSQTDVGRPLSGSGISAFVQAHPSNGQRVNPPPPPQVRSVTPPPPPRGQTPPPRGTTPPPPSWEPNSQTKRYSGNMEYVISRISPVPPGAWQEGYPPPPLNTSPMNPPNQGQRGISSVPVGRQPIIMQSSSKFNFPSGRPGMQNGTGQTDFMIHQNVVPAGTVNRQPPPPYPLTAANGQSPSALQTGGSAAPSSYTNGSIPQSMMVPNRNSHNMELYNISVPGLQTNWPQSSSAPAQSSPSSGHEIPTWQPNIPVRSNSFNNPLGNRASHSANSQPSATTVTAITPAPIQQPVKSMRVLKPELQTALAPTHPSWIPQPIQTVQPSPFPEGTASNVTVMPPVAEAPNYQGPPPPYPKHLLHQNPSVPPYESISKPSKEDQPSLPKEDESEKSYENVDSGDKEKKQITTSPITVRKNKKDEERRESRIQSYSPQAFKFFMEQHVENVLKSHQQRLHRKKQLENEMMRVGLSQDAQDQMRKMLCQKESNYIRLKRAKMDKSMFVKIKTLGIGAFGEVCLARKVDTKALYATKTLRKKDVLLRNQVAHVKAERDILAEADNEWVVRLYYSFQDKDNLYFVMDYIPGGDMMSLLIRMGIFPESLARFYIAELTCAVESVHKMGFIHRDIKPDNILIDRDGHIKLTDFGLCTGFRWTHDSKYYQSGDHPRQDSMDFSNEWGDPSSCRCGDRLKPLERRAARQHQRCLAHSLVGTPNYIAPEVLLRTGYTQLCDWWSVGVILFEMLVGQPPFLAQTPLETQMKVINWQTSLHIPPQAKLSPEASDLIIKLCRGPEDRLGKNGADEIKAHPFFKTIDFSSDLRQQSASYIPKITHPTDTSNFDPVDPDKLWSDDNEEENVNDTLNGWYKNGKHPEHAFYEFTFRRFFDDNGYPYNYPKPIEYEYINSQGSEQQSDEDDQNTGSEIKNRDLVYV

[8] = target: T1, Serine/threonine-protein kinase LATS1 (Homo sapiens); assay: Activation of LATS1 in human SUM159 cells assessed as induction of YAP degradation by measuring suppression of YAP protein expression at 0.25 to 1.5 uM measured after 12 to 24 hrs by immunoblotting analysis; type: cell-based
[9] = Acute toxicity in athymic Nude-Foxn1nu BALB/c mouse xenografted with human MDA-MB-231 cells assessed as effect on serum albumin level at 200 mg/kg, po administered once daily via gavage for 14 days; type: organism-based; conditions: in vivo, 336 h
[10] = tested on: MDA-MB-231; assay: Effect on MOB expression in human MDA-MB-231 cells at 0.25 to 1.5 uM measured after 24 hrs by Western blot analysis; type: functional, cell-based
[11] = tested on: PC-3; assay: Effect on MST1 expression in human PC3 cells at 0.25 to 1.5 uM measured after 24 hrs by Western blot analysis; type: functional, cell-based
[12] = tested on: PC-9; assay: Cytotoxicity against human PC9 cells assessed as reduction in cell viability measured after 72 hrs by MTT assay; type: functional, cell-based
[13] = target: T1, Serine/threonine-protein kinase LATS1 (Homo sapiens); assay: Activation of LATS1 in human PC9 cells assessed as increase in YAP phosphorylation at Ser397 at 0.25 to 1.5 uM measured after 12 to 24 hrs by immunoblotting analysis; type: cell-based
[14] = tested on: PC-3; assay: Effect on MOB expression in human PC3 cells at 0.25 to 1.5 uM measured after 24 hrs by Western blot analysis; type: functional, cell-based
[15] = target: T1, Serine/threonine-protein kinase LATS1 (Homo sapiens); assay: Activation of LATS1 in human PC9 cells assessed as increase in YAP phosphorylation at Ser397 at 0.25 to 1.5 uM measured after 24 to 48 hrs by immunoblotting analysis; type: cell-based
[16] = tested on: PC-3; assay: Cytostatic activity against human PC3 cells assessed as cell viability at concentration of greater than IC50 measured up to 72 hrs by MTT assay; type: functional, cell-based
[17] = target: T1, Serine/threonine-protein kinase LATS1 (Homo sapiens); assay: Activation of LATS1 in triple-negative human SUM159 cells assessed as induction of YAP degradation by measuring suppression of YAP protein expression at 0.25 to 1 uM measured after 12 hrs by Western blot analysis
[18] = tested on: PC-9; assay: Cytostatic activity against human PC9 cells assessed as cell viability at concentration of greater than IC50 measured up to 72 hrs by MTT assay; type: functional, cell-based
[19] = target: T1, Serine/threonine-protein kinase LATS1 (Homo sapiens); assay: Activation of LATS1 in triple-negative human SUM159 cells assessed as induction of YAP degradation by measuring suppression of YAP protein expression at 0.25 to 1 uM measured after 12 hrs in presence of 10 uM proteosomal inhibitor, MG132 by Western blot analysis
[20] = tested on: PC-3; assay: Cytotoxicity against human PC3 cells assessed as reduction in cell viability at 0.2 to 1.2 uM by MTT assay; type: functional, cell-based; conditions: TDE = time-dependent effect
[21] = target: T1, Serine/threonine-protein kinase LATS1 (Homo sapiens); assay: Activation of LATS1 in human PC3 cells assessed as increase in YAP phosphorylation at Ser397 at 0.25 to 1.5 uM measured after 12 to 24 hrs by immunoblotting analysis; type: cell-based

For `CC(=O)Nc1ccc(NC(=O)Nc2cccc(-c3nc(-c4ccc(NC(=O)c5cccnc5)cc4Cl)no3)c2)cc1C(F)(F)F`, which Activity [1] is on record?
The Activity was “Non-Toxic”.

What about the Activity [2] of the same molecule?
Its Activity is “inactive”.

And the inhibition [3]?
The inhibition was “Active”.

What about the Activity [4] of the same molecule?
The Activity was “Non-Toxic”.

And the Activity [5]?
The Activity was “Dose-dependent effect”.

What about the IC50 ([5]; MDA-MB-231, 72 h) of the same molecule?
Its IC50 is 400 to 800 nM.

And the Activity [6]?
The Activity was “Tde”.

What about the Activity [7] of the same molecule?
The Activity was “Dose-dependent effect”.

And the Activity [8]?
The Activity was “Active”.

What about the Activity [9] of the same molecule?
Its Activity is “Non-Toxic”.

What about the Activity [10] of the same molecule?
The Activity was “inactive”.

And the Activity [11]?
The Activity was “inactive”.

And the Activity [12]?
Its Activity is “Dose-dependent effect”.

What about the IC50 ([12]; PC-9, 72 h) of the same molecule?
Its IC50 is 400 to 800 nM.

And the Activity [13]?
The Activity was “Active”.

What about the Activity [14] of the same molecule?
Its Activity is “inactive”.

What about the Activity [15] of the same molecule?
The Activity was “inactive”.

What about the Activity [16] of the same molecule?
The Activity was “Active”.

What about the Activity [17] of the same molecule?
The Activity was “Active”.

What about the Activity [18] of the same molecule?
Its Activity is “Active”.

And the Activity [19]?
The Activity was “inactive”.

And the Activity [20]?
The Activity was “Tde”.

What about the Activity [21] of the same molecule?
The Activity was “Active”.
